The target in assay [1] is T1, α2-GABAA receptor (Homo sapiens, UniProt P18507+P47869).
T1 construct: expressed in transfected cells
The assay is described as follows: Whole-cell patch-clamp electrophysiology, positive allosteric modulatory activity in α2-GABAAR-HEK293 cells. It counts as cell-based. Particulars: compound 100 nM; GABA 0.10 to 0.11 µM (approximately EC7-8); normalized to reference compound CVL-865 (= 100%); read-out: α2-GABAAR Positive allosteric modulatory activity. In short, it runs like this:
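HEK293 cells stably co-expressing α2β3γ2 GABAA receptor, whole-cell patch clamp at -60 mV. Compounds at 100 nM final applied with GABA 0.10–0.11 µM (~EC7-8) after GABA-only current stabilized. […]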
In general terms: Patch clamp records ionic current or voltage across a cell membrane.

In assay [2] the target is T1, α2-GABAA receptor. The assay is described as follows: Radioactive ligand (3H-flunitrazepam) competitive binding assay, BZD site of membrane proteins of α2-GABAAR-HEK293 cells. Conditions: competition with 1 nM 3H-flunitrazepam; HEK293 membranes expressing α2, β3, γ2 subunits; Ki calculated from IC50; read-out: α2 Ki. The source says: The α subunit, β subunit, and γ subunit are indispensable for forming a fully functional GABAA receptor. In this example, HEK293 cells stably expressing α2-GABAA receptors (α2-GABAAR) were constructed and screened respectively via liposome transfection (Felgner, P.L., et al. Proceedings of the National Academy of Sciences, 1987, 84: 7413-7417). The α2-GABAAR-HEK293 cell model co-expresses the α2 subunit (protein sequence referenced under GenBank accession number: NM_000807.4), β3 subunit (protein sequence referenced under GenBank accession number: NM_000814.5), and γ2 subunit (protein sequence referenced under GenBank accession number: NM_000816.3).
The above cell lines were subcultured. α2-GABAAR-HEK293 cells were amplified for testing the affinity of compounds to the benzodiazepine (BZD) site of GABAA receptors. Some of the α2-GABAAR-HEK293 cells in suspension during subculturing were plated on glass slides pre-treated with Poly-D-Lysine for electrophysiological testing (method reference: Patent CN 107344936 A, paragraph 0586).
The affinity of the compound for the α2-GABAA receptor was determined by competing with ^3H-flunitrazepam (isotope ^3H-labeled flunitrazepam) for binding to the BZD site of membrane proteins in HEK293 cells stably expressing human α2-GABAAR.
Membrane preparation: Cells were suspended in 50 mM Tris-HCl buffer (pH=7.4), homogenized on ice using a homogenizer for 20 seconds with 10 repetitions, and centrifuged at 4°C, 1000g for 10 minutes. The supernatant was collected, and the above steps were repeated. The supernatant was centrifuged at 4°C (33,800 × g; Thermo, rotor: A27-8x50) for 60 minutes, and the pellet was resuspended in Tris buffer (50 mM Tris-HCl, 10 mM MgCl2, 0.5 mM EDTA, 10% glycerol). The protein concentration was determined using the bicinchoninic acid (BCA) protein assay based on the copper ion reduction method (BCA kit purchased from Pierce (Annoron)). Aliquots of 1 mL were prepared and stored at -80°C.
Radioactive ligand competitive binding assay: This assay was conducted in a 200 µL system (96-well plate), containing 100 µL of cell membrane. The concentration of ^3H-flunitrazepam was 1 nM, and the concentration of the test compound ranged from […]. Flumazenil was used as a control. The low signal control well (Low Control, LC) was added with 1 µL of 2 mM flumazenil (final concentration 10 µM), while the high signal control well (High Control, HC) was added with 1 µL of dimethyl sulfoxide. The final concentration of the target membrane protein was 5 µg/well. All test compound stock solutions were prepared as 10 mM solutions in dimethyl sulfoxide. The working concentration of the samples was prepared by diluting all samples to 0.2 mM with dimethyl sulfoxide, followed by a 4-fold serial dilution to obtain a total of 8 concentration gradients. The 96-well plate was sealed with sealing film and then incubated on a shaker at room temperature for 1 hour. The GF/C filter plate was also soaked with a soaking buffer (0.3% PEI (polyethyleneimine, purchased from: Sigma-Aldrich, model: P314), stored at 4°C) for at least 0.5 hours. After the incubation was completed, the mixture was collected onto a GF/C filter plate using a cell harvester and washed four times with wash buffer (50 mM Tris-HCl, pH 7.4, stored at 4°C). After drying in a 50°C oven for 1 hour, the dried GF/C filter plate was sealed at the bottom with a film. The residual radioactivity on the filter membrane was detected using liquid scintillation counting. Each well was filled with 50 µL of scintillation fluid and sealed. Readings were taken using a Microbeta^2 (microplate counter, purchased from PerkinElmer, model: CNLL0153). The inhibitory activity of the test sample on the binding of ^3H-flunitrazepam to GABAA receptor membrane protein was calculated. […]

Molecules are shown by their SMILES.

Usually Ki stands for a dissociation constant, usually derived from enzyme kinetics or from competition with a known ligand. As for `CCCNC(=O)c1nc2c(-c3c(F)cccc3OC)cccn2c1N` [Example 3, 3-Amino-8-(2-fluoro-6-methoxyphenyl)-N-propylimidazo[1,2-a]pyridine-2-carboxamide], in assay [1], the Emax at 0.1 µM is 105%. Besides, in assay [2], the Ki is 24 nM.
For `COc1cccc(F)c1-c1cccn2c(N)c(C(=O)NCCC(F)(F)F)nc12` [Example 25, 3-Amino-8-(2-fluoro-6-methoxyphenyl)-N-(3,3,3-trifluoropropyl)imidazo[1,2-a]pyridine-2-carboxamide] the same measures were 91% and 28.8 nM.
For `CCCNC(=O)c1nc2c(-c3cccc(F)c3)cccn2c1N` [Example 46, 3-Amino-8-(3-fluorophenyl)-N-propylimidazo[1,2-a]pyridine-2-carboxamide], in assay [1], the Emax at 0.1 µM was 50%. The Ki in assay [2] is 18.7 nM.
For `CCCNC(=O)c1nc2c(-c3ccc(F)cc3OC)cccn2c1N` [Example 53, 3-Amino-8-(4-fluoro-2-methoxyphenyl)-N-propylimidazo[1,2-a]pyridine-2-carboxamide] the same measures were 92% and 57 nM.
For `[2H]C([2H])([2H])Oc1cccc(F)c1-c1cccn2c(N)c(C(=O)NCCC)nc12` [Example 138, 3-Amino-8-(2-fluoro-6-(methoxy-d3)phenyl)-N-propylimidazo[1,2-a]pyridine-2-carboxamide] the same measures were 77% and 11.1 nM.
For the molecule `COc1cccc(F)c1-c1cccn2c(N)c(C(=O)Nc3cc(C)on3)nc12` [Example 16, 3-Amino-8-(2-fluoro-6-methoxyphenyl)-N-(5-methylisoxazol-3-yl)imidazo[1,2-a]pyridine-2-carboxamide], the Emax at 0.1 µM in assay [1] worked out at 200%. Moreover, the Ki in assay [2] was 19.3 nM.
The like results for `CCCNC(=O)c1nc2c(-c3cc(OC)ccc3OC)cccn2c1N` [Example 69, 3-Amino-8-(2,5-dimethoxyphenyl)-N-propylimidazo[1,2-a]pyridine-2-carboxamide] were, in that order, 70% and 30.8 nM.
The like results for `CCCNC(=O)c1nc2c(-c3cc(F)ccc3F)cccn2c1N` [Example 52, 3-Amino-8-(2,5-difluorophenyl)-N-propylimidazo[1,2-a]pyridine-2-carboxamide] were, in that order, 63% and 11.2 nM.
For `CCCNC(=O)c1nc2c(-c3cccc(C)c3)cccn2c1N` [Example 48, 3-Amino-N-propyl-8-(3-methylphenyl)imidazo[1,2-a]pyridine-2-carboxamide] the same measures were 71% and 14.2 nM.
On to `CCCNC(=O)c1nc2c(OCc3c(F)cccc3OC)cccn2c1N` [Example 151, 3-Amino-8-((2-fluoro-6-methoxybenzyl)oxy)-N-propylimidazo[1,2-a]pyridine-2-carboxamide], for which the Emax at 0.1 µM in assay [1] was determined as 35%. Moreover, the Ki in assay [2] was 87 nM.
The like results for `CCCNC(=O)c1nc2c(-c3cc(C(F)F)ccc3OC)cccn2c1N` [Example 67, 3-Amino-8-(5-(difluoromethyl)-2-methoxyphenyl)-N-propylimidazo[1,2-a]pyridine-2-carboxamide] were, in that order, 138% and 15 nM.
For `CCCNC(=O)c1nc2c(-c3cc(F)cc(C#N)c3)cccn2c1N` [Example 55, 3-Amino-8-(3-cyano-5-fluorophenyl)-N-propylimidazo[1,2-a]pyridine-2-carboxamide] the same measures were 89% and 27.8 nM.
For `CCCNC(=O)c1nc2c(-c3c(F)ccc(F)c3OC)cccn2c1N` [Example 79, 3-Amino-8-(3,6-difluoro-2-methoxyphenyl)-N-propylimidazo[1,2-a]pyridine-2-carboxamide] the same measures were 71% and 40.1 nM.
On to `COc1cccc(F)c1-c1cccn2c(N)c(C(=O)NCCCF)nc12` [Example 27, 3-Amino-8-(2-fluoro-6-methoxyphenyl)-N-(3-fluoropropyl)imidazo[1,2-a]pyridine-2-carboxamide], for which the Emax at 0.1 µM in assay [1] came to 84%. In addition, the Ki in assay [2] is 32 nM.
For `CCCNC(=O)c1nc2c(-c3cc(C)ccc3F)cccn2c1N` [Example 50, 3-Amino-8-(2-fluoro-5-methylphenyl)-N-propylimidazo[1,2-a]pyridine-2-carboxamide] the same measures were 104% and 3.95 nM.
Regarding `CCCNC(=O)c1nc2c(-c3ccc(F)c(C#N)c3)cccn2c1N` [Example 56, 3-Amino-8-(3-cyano-4-fluorophenyl)-N-propylimidazo[1,2-a]pyridine-2-carboxamide], the Emax at 0.1 µM in assay [1] amounted to 95%. In addition, in assay [2], the Ki is 38.2 nM.
For `CCCNC(=O)c1nc2c(-c3cccc(C#N)c3F)cccn2c1N` [Example 57, 3-Amino-8-(3-cyano-2-fluorophenyl)-N-propylimidazo[1,2-a]pyridine-2-carboxamide] the same measures were 167% and 3.32 nM.
For `CCCNC(=O)c1nc2c(-c3cc(C)cnc3OC)cccn2c1N` [Example 83, 3-Amino-8-(2-methoxy-5-methylpyridin-3-yl)-N-propylimidazo[1,2-a]pyridine-2-carboxamide] the same measures were 164% and 5.9 nM.
The like results for `CCCNC(=O)c1nc2c(-c3cc(C4CC4)ccc3OC)cccn2c1N` [Example 68, 3-Amino-8-(5-cyclopropyl-2-methoxyphenyl)-N-propylimidazo[1,2-a]pyridine-2-carboxamide] were, in that order, 92% and 51 nM.
Turning to `CCCNC(=O)c1nc2c(-c3cccc(C#N)c3)cccn2c1N` [Example 35, 3-Amino-8-(3-cyanophenyl)-N-propylimidazo[1,2-a]pyridine-2-carboxamide], in assay [1], the Emax at 0.1 µM amounted to 108%. Further, the Ki in assay [2] was 13.3 nM.
For `CCCNC(=O)c1nc2c(-c3cc(C(F)(F)F)ccc3OC)cccn2c1N` [Example 58, 3-Amino-8-(2-methoxy-5-(trifluoromethyl)phenyl)-N-propylimidazo[1,2-a]pyridine-2-carboxamide] the same measures were 103% and 34.5 nM.
The like results for `COc1ccc(C#N)cc1-c1cccn2c(N)c(C(=O)NC3CC(C)C3)nc12` (stereo not drawn) [Example 34, 3-Amino-8-(5-cyano-2-methoxyphenyl)-N-(3-methylcyclobutyl)imidazo[1,2-a]pyridine-2-carboxamide] were, in that order, 101% and 5.07 nM.
As to `COc1ccc(F)c(F)c1-c1cccn2c(N)c(C(=O)NC3CC(C)C3)nc12` (stereo not drawn) [Example 32, 3-Amino-8-(2,3-difluoro-6-methoxyphenyl)-N-(3-methylcyclobutyl)imidazo[1,2-a]pyridine-2-carboxamide], the Emax at 0.1 µM in assay [1] is 50%. Also, the Ki in assay [2] was 7.33 nM.
For `CCCNC(=O)c1nc2c(-c3c(OC)ccc(C)c3F)cccn2c1N` [Example 77, 3-Amino-8-(2-fluoro-6-methoxy-3-methylphenyl)-N-propylimidazo[1,2-a]pyridine-2-carboxamide] the same measures were 126% and 5.17 nM.

The values above are taken from patent publication EP4703359A1 (Shanghai Simr Biotechnology Co., Ltd., priority 2023, dated 2024).
